Laboratory results taken from ChEMBL document CHEMBL1154917, “Flavanone and diphenylpropane glycosides and glycosidic acyl esters from Viscum articulatum” (J Nat Prod, 2010).

Legend:
[1] = test system: Radical scavenging activity; assay: Antioxidant activity assessed as DPPH radical scavenging activity after 30 mins; assay type: functional
RAW264.7 = assay: Antiinflammatory activity against mouse RAW264.7 cells assessed as Inhibition of LPS-induced nitric oxide production after 24 hrs by ELISA; assay type: functional, cell-based; conditions: RAW264.7, 24 h
[2] = Cytotoxicity against mouse RAW264.7 cells assessed as cell viability at 1 to 20 uM after 24 hrs by MTT assay relative to control; assay type: cell-based; conditions: read-out: Activity

| Compound | IC50 (RAW264.7) | ED50 [1] | viability at 24 h, up to 20 µM [2] |
| --- | --- | --- | --- |
| COc1cc(CCCc2c(OC)cc(O)c(OC)c2OC)ccc1O[C@@H]1O[C@H](CO)[C@@H](O)[C@H](O)[C@H]1O | 30.2 µM | > 100 µM | 77% |
| O=C1C[C@@H](c2ccc(O)c(O)c2)Oc2cc(O[C@@H]3O[C@H](CO)[C@@H](O)[C@H](O)[C@H]3O)cc(O)c21 | 41.2 µM | 63.3 µM | 100% |
| Cc1c(C)c2c(c(C)c1O)CC[C@@](C)(CCC[C@H](C)CCC[C@H](C)CCCC(C)C)O2 |  | 28.4 µM |  |
| O=C1C[C@@H](c2ccc(O)cc2)Oc2cc(O[C@@H]3O[C@H](CO)[C@@H](O)[C@H](O)[C@H]3O)cc(O)c21 [PRUNIN] | 42.6 µM | > 100 µM | 100% |
| O=c1c(O)c(-c2ccc(O)c(O)c2)oc2cc(O)cc(O)c12 [QUERCETIN] | 32.1 µM |  | 100% |
| O=C(/C=C/c1ccccc1)OC[C@@]1(O)CO[C@@H](O[C@@H]2[C@@H](O)[C@@H](O)O[C@H](CO)[C@H]2O)[C@@H]1O [VISARTISIDE D] | 32.3 µM | > 100 µM | 80.2% |
| O=C(/C=C/c1ccccc1)OC[C@@]1(O)CO[C@@H](O[C@@H]2[C@@H](O)[C@H](OCc3ccccc3)O[C@H](CO)[C@H]2O)[C@@H]1O [VISARTISIDE E] | 39.6 µM | > 100 µM | 88.1% |

Second part, led by results:

| IC50 (RAW264.7) | Compound | ED50 [1] | viability at 24 h, up to 20 µM [2] |
| --- | --- | --- | --- |
| 19.2 µM | O=C1C[C@@H](c2ccccc2)Oc2cc(O[C@@H]3O[C@H](CO)[C@@H](O)[C@H](O)[C@H]3O)cc(O)c21 | > 100 µM | 74.5% |
| 23.4 µM | COc1cc([C@@H]2CC(=O)c3c(O)cc(O[C@@H]4O[C@H](CO)[C@@H](O)[C@H](O)[C@H]4O)cc3O2)ccc1O | 100 µM | 88.7% |
| 15.6 µM | O=C(/C=C/c1ccccc1)O[C@H]1[C@H](Oc2cc(O)c3c(c2)O[C@H](c2ccc(O)c(O)c2)CC3=O)O[C@H](CO)[C@@H](O)[C@@H]1O [VISARTISIDE A] | 37.6 µM | 100% |
| 25.1 µM | O=C(/C=C/c1ccccc1)OC[C@H]1O[C@@H](Oc2cc(O)c3c(c2)O[C@H](c2ccc(O)c(O)c2)CC3=O)[C@H](O)[C@@H](O)[C@@H]1O [VISARTISIDE B] | 34.1 µM | 100% |
| 14.9 µM | O=C(/C=C/c1ccccc1)OC[C@@]1(O)CO[C@@H](O[C@H]2[C@H](Oc3cc(O)c4c(c3)O[C@H](c3ccc(O)c(O)c3)CC4=O)O[C@H](CO)[C@@H](O)[C@@H]2O)[C@@H]1O [VISARTISIDE C] | > 100 µM | 99.7% |
| 27.8 µM | COc1ccc(/C=C/CO[C@@H]2O[C@H](CO)[C@@H](O)[C@H](O[C@@H]3OC[C@](O)(COC(=O)/C=C/c4ccccc4)[C@H]3O)[C@H]2O)cc1O [VISARTISIDE F] | > 100 µM | 85.2% |
